Like-named read-outs stand apart in the source and are kept apart here.
Experiments:
[1] = system: HepDES19 cells; design: method as in PMID 28450058, PMID 28633989, PMID 29565562, PMID 30768944; details: Figures 1 and 2, earlier inhibitors; cited from earlier work
[2] = system: HBV replication; details: Figures 1 and 2, earlier inhibitors; cited from earlier work
[3] = system: HBV replication; test: qPCR HBV replication inhibition assay in HepDES19 cells; assay type: cell-based, Hepatitis B virus (HBV) genotype D; details: Hepatitis B virus, 72 h, (+) DNA qPCR, read-out: EC50
Description: (§1) HepDES19 cells were incubated on collagen-coated plates at 37 °C with 5% CO2 and saturating humidity in Dulbecco’s modified Eagle’s medium (DMEM/F12) (Cytiva Life Sciences, Marlborough, MA, USA) supplemented with 10% fetal bovine serum (FBS), penicillin (100 IU/mL), and streptomycin (100 µg/mL). HepDES19 cells are HepG2 cells that carry a stably transfected HBV genotype D genome under the control of a tetracycline repressible promoter. Cells were maintained in the presence of 1 µg/mL tetracycline to repress the expression of the stably integrated HBV genome, and HBV replication was induced by the withdrawal of tetracycline from the culture medium.
HBV replication inhibition was measured in HepDES19 cells induced to replicate HBV by the removal of tetracycline using a strand-preferential quantitative PCR assay as previously described. Cells were seeded at 4 × 10^4 cells/well in 96-well plates for 48 h. Serially diluted compound was then added to cells at a final concentration of 1% DMSO for 72 h, after which the cells were lysed and qPCR was performed as described in Li et al.. EC50 values were calculated from the (+) DNA data with GraphPad Prism using the four-parameter log (inhibitor) versus response algorithm with the bottom value set to zero. Three or more replicate assays were performed on different days.

[4] = MTS cytotoxicity assay; assay type: cell-based; details: human, HepDES19 cells
Description: as §1
(§2) Cell viability was assessed using the CellTiter 96^TM Aqueous Non-Radioactive Cell Proliferation assay (MTS) (Promega, Madison, WI, USA) as described previously. HepDES19 cells were seeded at 1 × 10^4 cells per well in 96-well, and compound was added after 48 h. Cells incubated with serially diluted compound (1% DMSO) for 72 h. Bac absorbance values were subtracted, and data were converted to percent cell viability. The cytotoxic concentration 50% (CC50) values were calculated with GraphPad Prism by using the four-parameter variable response log (inhibitor) versus response algorithm with the bottom value set to zero. Three or more replicate assays were performed on different days.

[5] = Parallel artificial membrane permeability assay; assay type: in vitro ADME; details: PAMPA; for Papp interpretation (high/low permeability category) at 2 h, 200 µM: pH 7.4, pH 7.4; for Papp at 2 h, 200 µM: pH 7.4, pH 7.4, 200 μM, room temperature
Description: Apparent passive permeability (Papp) was assessed at pH 7.4 using a 96-well donor/acceptor cassette (Sigma Aldrich, Burlington, MA, USA), which mimics the apical and basolateral sides of the small intestine epithelium, as we have described previously. Briefly, an artificial membrane composed of 1% w/v lethicin/dodecane was added to the poly (vinylidene fluoride) (PVDF) membrane filter. Once dry, compounds (200 μM) were diluted in buffer at pH 7.4 and added to the donor side of the membrane, and the same pH buffer was added to the acceptor side. The cassette was assembled and incubated at room temperature with shaking at 250 rpm for 2 h, after which 100 μL of the acceptor well was retrieved and the experimental compound absorbance was read on a plate reader between 200 and 600 nm. Compound Papps (cm/s) values were determined by normalizing to the compound absorbance at equilibrium, incubation time, and membrane porosity Two or more replicate assays were conducted on different days.

[6] = Solubility limit assay (turbidity, DMEM-F12 + 10% FBS); assay type: physicochemical; details: DMEM-F12 without phenol red with 10% FBS, plasma or biological fluid, kinetic from dmso stock; pH 7.4, DMEM-F12 with 10% FBS, 1% DMSO, upper limit 200 µM
Description: Compound solubility limits were tested in DMEM-F12 without phenol red (Gibco, Grand Island, NY, USA) supplemented with 10% FBS (pH 7.2–7.4) to mimic cell culture experiments, as we have performed previously. Compounds were serially diluted in buffer at pH 7.4 in 384-well, optically clear plates (upper limit 200 µM, DMSO 1%) and read on a plate reader at 620 nm. Compound concentration (µM) was plotted against optical density (OD) and a solubility limit was determined by identifying an inflection point where there was a significant increase in optical density due to increasing turbidity; the concentration of the compound at the inflection point was defined as the solubility limit. Two or more replicate assays were performed on different days for each compound.

[7] = system: HepDES19 cells; test: MTS cytotoxicity assay; assay type: cell-based; details: 72 h
Description: as §1, §2

Structure (SMILES)	CC50 [1]	EC50 [2]	melting point	EC50 [3]	CC50 at 72 h [4]	Papp interpretation (high/low permeability category) at 2 h, 200 µM [5]	Papp at 2 h, 200 µM [5]	solubility [6]	CC50 [7]
COc1ccc(CON=C(C)c2c(C)cc(=O)n(O)c2O)cc1 [A24]	102 µM	0.29 µM							
CC(=NOC(C)c1ccccc1)c1c(C)cc(=O)n(O)c1O (stereo not drawn) [Compound 46, 1,6-Dihydroxy-4-methyl-5-(1-((1-phenylethoxy)imino)ethyl)pyridin-2(1H)-one]			130 to 132 °C	3.1 ± 0.5 µM	100 µM	> 1 ×10⁻⁶ cm/s	3.19 ×10⁻⁶ cm/s	> 200 µM	
COC(=O)c1ccc(CON=C(C)c2c(C)cc(=O)n(O)c2O)cc1 [Compound 47, 4′-((((1′-(1,2-Dihydroxy-4-methyl-6-oxo-1,6-dihydropyridin-5-yl)ethylidene)amino)oxy)methyl)methyl benzoate]			120 °C (dec.)	1.1 ± 0.4 µM	100 µM	> 1 ×10⁻⁶ cm/s	5.52 ×10⁻⁶ cm/s	> 200 µM	minimally cytotoxic
CC(=NOCc1ccc([N+](=O)[O-])cc1)c1c(C)cc(=O)n(O)c1O [Compound 48, 1,6-Dihydroxy-4-methyl-5-(1-(((4-nitrobenzyl)oxy)imino)ethyl)pyridin-2(1H)-one]			105 to 107 °C	1.1 ± 0.2 µM	99.6 ± 0.6 µM	> 1 ×10⁻⁶ cm/s	5.38 ×10⁻⁶ cm/s	> 200 µM	minimally cytotoxic
CC(=NOC(CNC(=O)c1ccc2ccccc2n1)c1cc(F)cc(F)c1)c1c(C)cc(=O)n(O)c1O (stereo not drawn) [Compound 49, N-(2-(3,5-Difluorophenyl)-2-(((1-(1,2-dihydroxy-4-methyl-6-oxo-1,6-dihydropyridin-3-yl)ethylidene)amino)oxy)ethyl)quinoline-2-carboxamide]			108 to 110 °C (dec.)	3.5 ± 0.8 µM	99.9 ± 0.2 µM	> 1 ×10⁻⁶ cm/s	6.71 ×10⁻⁶ cm/s	> 200 µM	
CC(=NOC(CNC(=O)c1nccs1)c1cc(F)cc(F)c1)c1c(C)cc(=O)n(O)c1O (stereo not drawn) [Compound 50, N-(2-(3,5-Difluorophenyl)-2-(((1-(1,2-dihydroxy-4-methyl-6-oxo-1,6-dihydropyridin-3-yl)ethylidene)amino)oxy)ethyl)thiazole-2-carboxamide]			117 to 119 °C (dec.)	4 ± 1.5 µM	100 µM	> 1 ×10⁻⁶ cm/s	4.67 ×10⁻⁶ cm/s	> 200 µM	
O=C(Nc1ccc2c(c1)C(=O)N(O)C(=O)C2C(=O)NCc1ccc(F)cc1)c1ccccc1 (stereo not drawn) [HID]	99 µM	1.4 µM							
NCc1ccc(-c2ccc(Cc3cc(=O)n(O)c4ncccc34)cc2)cc1 [HNO]	7.1 µM	3.4 µM							
C/C(=N\c1cccc(Br)c1)c1c(C)cc(=O)n(O)c1O [HPD imine]	62.3 µM	1.1 µM							
COC(=O)c1c2c(cc(O)c(=O)c1O)COC2=O [a-HT]	> 77 µM	0.5 µM							

Source: article PMC11206691, “N-Hydroxypiridinedione: A Privileged Heterocycle for Targeting the HBV RNase H” (Molecules, 2024)
